Experimental data reported in patent US12435092B2, “Substituted imidazo[1,2-A]quinazolines as inhibitors of PARG” (858 Therapeutics, Inc., priority 2022, dated 2025).

target: T1, cellular PARG (Homo sapiens, UniProt Q86W56); experiment: Nuclear PAR accumulation assay (immunofluorescence high-content imaging); assay type: cell-based; settings: HeLa cells, 1 hour compound treatment then MMS 50 μg/mL for an additional hour
T1 construct: endogenous in cells; host or cells: HeLa
Description: Compound IC50 values for inhibition of cellular PARG were determined using an immunofluorescence high-content imaging assay for nuclear PAR accumulation. HeLa cells were plated at 15,000 cells/well in a 96-well plate the day before compound treatment and then treated with varying concentrations of test compound and incubated for 1 hour at 37° C.+5% CO2. Following test compound treatment, methylmethane sulfonate (MMS) was added to a final concentration of 50 μg/mL and the cells were incubated for an additional hour. Following treatment, the cells were fixed with ice cold 95% methanol and the plates sealed and placed at −20° C. for 15 minutes. The cells were then washed once with phosphate buffered saline (PBS) and permeabilized with 0.1% Triton-X 100 for 20 minutes at room temperature. The cells were again washed once with PBS and incubated with an anti-poly-ADP ribose (PAR) monoclonal antibody (Millipore Part #AM80 clone 10H) diluted 1:1,000 in 5% fetal bovine serum +0.1% Tween-20+PBS overnight at 4° C. The cells were then washed three times with PBS before incubation with a fluorescently conjugated goat anti-mouse antibody (Invitrogen A32723) diluted 1:500 in 5% FBS+0.1% Tween-20+PBS for 1 hour at room temperature. The cells were again washed three times with PBS and the nuclei labeled by incubating with 1 μg/mL DAPI (4′,6-diamidino-2-phenylindole). Nuclear PAR accumulation was evaluated using high-content fluorescence microscopy. Four fields for each well were acquired at 20× magnification resulting in at least 1,000 cells analyzed per well. Using high-content software (CellReporterXpress) the nuclei were detected and segmented using the DAPI channel and the fluorescence intensity of the PAR-Alexa 488 channel was quantified within the nuclei regions. Both the average intensity per nucleus and percent PAR positive cells were quantified. Percent PAR positive cells were identified by having greater anti-PAR labeling above the threshold set with vehicle DMSO treated control cells. Percent inhibition of PARG by test compounds was calculated by normalizing the data to the 0.1% DMSO and reference compound control values, which represent 0% and 100% inhibition of enzymatic activity, respectively. Concentration-response-curves and IC50 values were generated using four parameter logistic curve fit software.

T1 sequence (Q86W56 whole entry): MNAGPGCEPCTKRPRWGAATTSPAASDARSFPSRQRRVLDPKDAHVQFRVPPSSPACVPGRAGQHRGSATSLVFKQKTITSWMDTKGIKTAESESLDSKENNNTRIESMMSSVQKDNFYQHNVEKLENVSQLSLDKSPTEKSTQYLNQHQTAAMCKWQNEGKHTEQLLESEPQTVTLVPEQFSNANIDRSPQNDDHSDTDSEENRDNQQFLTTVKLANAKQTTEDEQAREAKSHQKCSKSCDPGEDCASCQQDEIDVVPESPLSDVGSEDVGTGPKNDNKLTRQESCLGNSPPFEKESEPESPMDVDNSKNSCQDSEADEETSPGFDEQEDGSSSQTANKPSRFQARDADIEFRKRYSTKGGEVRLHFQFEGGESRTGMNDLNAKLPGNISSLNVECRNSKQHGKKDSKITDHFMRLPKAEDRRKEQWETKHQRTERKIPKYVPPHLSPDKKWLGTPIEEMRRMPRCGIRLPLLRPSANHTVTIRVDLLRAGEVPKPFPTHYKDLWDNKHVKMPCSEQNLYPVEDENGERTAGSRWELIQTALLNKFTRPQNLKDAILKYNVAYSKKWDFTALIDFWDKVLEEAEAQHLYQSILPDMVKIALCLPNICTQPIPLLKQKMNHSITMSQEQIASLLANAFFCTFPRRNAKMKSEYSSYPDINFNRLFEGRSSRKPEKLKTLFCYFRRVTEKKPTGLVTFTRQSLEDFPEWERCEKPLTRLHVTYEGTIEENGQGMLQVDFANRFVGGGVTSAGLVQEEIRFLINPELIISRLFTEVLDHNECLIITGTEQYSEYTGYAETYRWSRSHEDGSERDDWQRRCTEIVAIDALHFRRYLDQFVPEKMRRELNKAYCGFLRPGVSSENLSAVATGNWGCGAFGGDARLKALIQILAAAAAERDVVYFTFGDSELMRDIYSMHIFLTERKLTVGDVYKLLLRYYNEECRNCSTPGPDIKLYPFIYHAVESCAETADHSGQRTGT

| SMILES | IC50 [nM] |
| --- | --- |
| CCN1C(=O)c2cc(S(=O)(=O)NC3(C)CC3)ccc2N2C1=NC[C@H]2C1CC1 [Example 26, (R)-1-cyclopropyl-4-ethyl-N-(1-methylcyclopropyl)-5-oxo-1,2,4,5-tetrahydroimidazo[1,2-a]quinazoline-7-sulfonamide] | 100 to 1000 |
| C#C[C@H]1CN=C2N(CC)C(=O)c3cc(S(=O)(=O)NC4(C)CC4)ccc3N21 [Example 27, (S)-4-ethyl-1-ethynyl-N-(1-methylcyclopropyl)-5-oxo-1,2,4,5-tetrahydroimidazo[1,2-a]quinazoline-7-sulfonamide] | 1000 to 10000 |
| C#C[C@@H]1CN=C2N(CC)C(=O)c3cc(S(=O)(=O)NC4(C)CC4)ccc3N21 [Example 28, (R)-4-ethyl-1-ethynyl-N-(1-methylcyclopropyl)-5-oxo-1,2,4,5-tetrahydroimidazo[1,2-a]quinazoline-7-sulfonamide] | 100 to 1000 |
| CC[C@H]1CN=C2N(Cc3cnc(C)s3)C(=O)c3cc(S(=O)(=O)NC4(C)CC4)ccc3N21 [Example 29, (S)-1-ethyl-N-(1-methylcyclopropyl)-4-((2-methylthiazol-5-yl)methyl)-5-oxo-1,2,4,5-tetrahydroimidazo[1,2-a]quinazoline-7-sulfonamide] | 1000 to 10000 |
| CC[C@@H]1CN=C2N(Cc3cnc(C)s3)C(=O)c3cc(S(=O)(=O)NC4(C)CC4)ccc3N21 [Example 30, (R)-1-ethyl-N-(1-methylcyclopropyl)-4-((2-methylthiazol-5-yl)methyl)-5-oxo-1,2,4,5-tetrahydroimidazo[1,2-a]quinazoline-7-sulfonamide] | ≤ 100 |
| Cc1ncc(CN2C(=O)c3cc(S(=O)(=O)NC4(C)CC4)ccc3N3C2=NC[C@H]3C)s1 [Example 31, (R)-1-methyl-N-(1-methylcyclopropyl)-4-((2-methylthiazol-5-yl)methyl)-5-oxo-1,2,4,5-tetrahydroimidazo[1,2-a]quinazoline-7-sulfonamide] | ≤ 100 |
| Cc1cc(CN2C(=O)c3cc(S(=O)(=O)NC4(C)CC4)ccc3N3C2=NC[C@H]3C)on1 [Example 32, (R)-1-methyl-N-(1-methylcyclopropyl)-4-((3-methylisoxazol-5-yl)methyl)-5-oxo-1,2,4,5-tetrahydroimidazo[1,2-a]quinazoline-7-sulfonamide] | ≤ 100 |
| C#C[C@H]1CN=C2N(Cc3cnn(C)c3)C(=O)c3cc(S(=O)(=O)NC4(C)CC4)ccc3N21 [Example 33, (S)-1-ethynyl-4-((1-methyl-1H-pyrazol-4-yl)methyl)-N-(1-methylcyclopropyl)-5-oxo-1,2,4,5-tetrahydroimidazo[1,2-a]quinazoline-7-sulfonamide] | 100 to 1000 |
| C#C[C@@H]1CN=C2N(Cc3cnn(C)c3)C(=O)c3cc(S(=O)(=O)NC4(C)CC4)ccc3N21 [Example 34, (R)-1-ethynyl-4-((1-methyl-1H-pyrazol-4-yl)methyl)-N-(1-methylcyclopropyl)-5-oxo-1,2,4,5-tetrahydroimidazo[1,2-a]quinazoline-7-sulfonamide] | ≤ 100 |
| Cn1cc(CN2C(=O)c3cc(S(=O)(=O)NC4(C)CC4)ccc3N3C2=NC[C@H]3C2CC2)cn1 [Example 35, (R)-1-cyclopropyl-4-((1-methyl-1H-pyrazol-4-yl)methyl)-N-(1-methylcyclopropyl)-5-oxo-1,2,4,5-tetrahydroimidazo[1,2-a]quinazoline-7-sulfonamide] | ≤ 100 |
| Cn1cc(CN2C(=O)c3cc(S(=O)(=O)NC4(C)CC4)ccc3N3C2=NC[C@@H]3C2CC2)cn1 [Example 36, (S)-1-cyclopropyl-4-((1-methyl-1H-pyrazol-4-yl)methyl)-N-(1-methylcyclopropyl)-5-oxo-1,2,4,5-tetrahydroimidazo[1,2-a]quinazoline-7-sulfonamide] | 100 to 1000 |
| CCN1C(=O)c2cc(S(=O)(=O)NC3(C)CC3)ccc2N2C1=NC[C@@H]2C(C)C [Example 37, (S)-4-ethyl-1-isopropyl-N-(1-methylcyclopropyl)-5-oxo-1,2,4,5-tetrahydroimidazo[1,2-a]quinazoline-7-sulfonamide] | > 10000 |
| CCN1C(=O)c2cc(S(=O)(=O)NC3(C)CC3)ccc2N2C1=NC[C@H]2C(C)C [Example 38, (R)-4-ethyl-1-isopropyl-N-(1-methylcyclopropyl)-5-oxo-1,2,4,5-tetrahydroimidazo[1,2-a]quinazoline-7-sulfonamide] | 100 to 1000 |
| CC(C)[C@H]1CN=C2N(Cc3cnn(C)c3)C(=O)c3cc(S(=O)(=O)NC4(C)CC4)ccc3N21 [Example 39, (S)-1-isopropyl-4-((1-methyl-1H-pyrazol-4-yl)methyl)-N-(1-methylcyclopropyl)-5-oxo-1,2,4,5-tetrahydroimidazo[1,2-a]quinazoline-7-sulfonamide] | 1000 to 10000 |
| CC(C)[C@@H]1CN=C2N(Cc3cnn(C)c3)C(=O)c3cc(S(=O)(=O)NC4(C)CC4)ccc3N21 [Example 40, (R)-1-isopropyl-4-((1-methyl-1H-pyrazol-4-yl)methyl)-N-(1-methylcyclopropyl)-5-oxo-1,2,4,5-tetrahydroimidazo[1,2-a]quinazoline-7-sulfonamide] | ≤ 100 |
| CC[C@H]1CN=C2N(CC)C(=O)c3cc(S(=O)(=O)NC4(C)CC4)ccc3N21 [Example 41, (S)-1,4-diethyl-N-(1-methylcyclopropyl)-5-oxo-1,2,4,5-tetrahydroimidazo[1,2-a]quinazoline-7-sulfonamide] | > 10000 |
| CC[C@@H]1CN=C2N(CC)C(=O)c3cc(S(=O)(=O)NC4(C)CC4)ccc3N21 [Example 42, (R)-1,4-diethyl-N-(1-methylcyclopropyl)-5-oxo-1,2,4,5-tetrahydroimidazo[1,2-a]quinazoline-7-sulfonamide] | 100 to 1000 |
| C#CC1CN=C2N(C)C(=O)c3cc(S(=O)(=O)NC4(C)CC4)ccc3N21 (stereo not shown) [Example 43, 1-ethynyl-4-methyl-N-(1-methylcyclopropyl)-5-oxo-1,2,4,5-tetrahydroimidazo[1,2-a]quinazoline-7-sulfonamide] | 100 to 1000 |
| CC[C@H]1CN=C2N(Cc3cnn(C)c3)C(=O)c3cc(S(=O)(=O)NC4(C)CC4)ccc3N21 [Example 44, (S)-1-ethyl-4-((1-methyl-1H-pyrazol-4-yl)methyl)-N-(1-methylcyclopropyl)-5-oxo-1,2,4,5-tetrahydroimidazo[1,2-a]quinazoline-7-sulfonamide] | 100 to 1000 |
| CC[C@@H]1CN=C2N(Cc3cnn(C)c3)C(=O)c3cc(S(=O)(=O)NC4(C)CC4)ccc3N21 [Example 45, (R)-1-ethyl-4-((1-methyl-1H-pyrazol-4-yl)methyl)-N-(1-methylcyclopropyl)-5-oxo-1,2,4,5-tetrahydroimidazo[1,2-a]quinazoline-7-sulfonamide] | ≤ 100 |
| C[C@@H]1CN=C2N(Cc3cnn(C)c3)C(=O)c3cc(S(=O)(=O)NC4(C)CC4)ccc3N21 [Example 46, (R)-1-methyl-4-((1-methyl-1H-pyrazol-4-yl)methyl)-N-(1-methylcyclopropyl)-5-oxo-1,2,4,5-tetrahydroimidazo[1,2-a]quinazoline-7-sulfonamide] | ≤ 100 |
| CCN1C(=O)c2cc(S(=O)(=O)NC3(C)CC3)ccc2N2C1=NC[C@H]2C [Example 47, (R)-4-ethyl-1-methyl-N-(1-methylcyclopropyl)-5-oxo-1,2,4,5-tetrahydroimidazo[1,2-a]quinazoline-7-sulfonamide] | 100 to 1000 |
